Values of other authors as cited in US20230109016A1, “IN-VITRO DIAGNOSIS OF HISTAMINE INTOLERANCE SYNDROME” (IMMUNDIAGNOSTIK AG, priority 2020, published 2023).
Where two headings read alike, the source gives them in different places.

What was measured:
[1] = molecular target: T1, DAO in serum (Homo sapiens, UniProt P19801)
T1 construct: host or cells: serum
T1 sequence (P19801 20-751): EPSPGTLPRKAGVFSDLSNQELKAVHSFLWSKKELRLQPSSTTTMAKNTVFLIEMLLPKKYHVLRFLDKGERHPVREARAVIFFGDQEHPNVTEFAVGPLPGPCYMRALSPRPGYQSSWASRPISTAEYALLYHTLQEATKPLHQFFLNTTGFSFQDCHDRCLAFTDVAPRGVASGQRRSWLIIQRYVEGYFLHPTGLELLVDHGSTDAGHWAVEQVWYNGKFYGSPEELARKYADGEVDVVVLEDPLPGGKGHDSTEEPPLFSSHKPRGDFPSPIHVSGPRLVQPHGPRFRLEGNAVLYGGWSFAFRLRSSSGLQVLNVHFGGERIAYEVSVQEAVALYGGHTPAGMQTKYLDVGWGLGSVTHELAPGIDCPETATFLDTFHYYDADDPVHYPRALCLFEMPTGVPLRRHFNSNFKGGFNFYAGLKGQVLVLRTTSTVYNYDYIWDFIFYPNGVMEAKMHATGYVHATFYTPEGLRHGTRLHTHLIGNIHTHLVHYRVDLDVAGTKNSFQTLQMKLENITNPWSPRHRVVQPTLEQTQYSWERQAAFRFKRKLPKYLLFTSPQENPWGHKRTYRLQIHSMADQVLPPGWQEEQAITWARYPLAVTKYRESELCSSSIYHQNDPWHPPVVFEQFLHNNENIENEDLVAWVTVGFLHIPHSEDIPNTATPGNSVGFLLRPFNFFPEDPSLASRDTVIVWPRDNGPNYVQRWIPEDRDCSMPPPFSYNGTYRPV

[2] = molecular target: T2, DAO (Homo sapiens, UniProt P19801); conditions: 14C-putrescine 1 micromole to 5 millimole
T2 sequence (P19801 20-751): T1 sequence (P19801 20-751)

[3] = molecular target: recombinant human kidney DAO (Homo sapiens, UniProt P19801); conditions: read-out: Km (Michaelis constant); isolated recombinant human kidney DAO expressed in Drosophila cells (Elmore et al. 2002)
[4] = molecular target: Human serum DAO (Homo sapiens, UniProt P19801)
[5] = 37° C.
[6] = test system: MAO; conditions: 14C-putrescine 1 micromole to 5 millimole
[7] = test system: DAO; conditions: within 30 minutes of heparin administration
[8] = molecular target: T2, DAO; conditions: presence of heparin in experiments with cell culture

Molecule | effect on the activity of DAO in serum ([1]; stated as known) | other results
COc1cc2c3cc1Oc1cc(ccc1O)C[C@@H]1c4c(cc(OC)c(O)c4Oc4ccc(cc4)C[C@@H]3N(C)CC2)CC[N+]1(C)C [D-tubocurarine] | inhibited | 
CC(=O)N[C@@H](CS)C(=O)O [acetylcysteine] | inhibited | 
CC(=O)Oc1ccccc1C(=O)O [acetylsalicylic acid] | inhibited | 
C=CC[N@@+]12CC[C@@]34c5ccccc5N5/C=C6/[C@H]7C[C@H]8[C@@]9(CC[N@@+]8(CC=C)C/C7=C/CO)c7ccccc7N(/C=C(/[C@@H](C[C@@H]31)/C(=C\CO)C2)[C@H]54)[C@@H]69 [alcuronium] | inhibited | 
N=C(N)NN [alpha-aminoguanidine] |  | sensitivity of serum DAO (high affinity enzyme) to inhibitor [2]: sensitive
C=CCc1ccccc1OCC(O)CNC(C)C (centres unmarked) [alprenolol] | inhibited | 
Nc1c(Br)cc(Br)cc1CN[C@H]1CC[C@H](O)CC1 [ambroxol] | inhibited | 
N=C(N)NC(=O)c1nc(Cl)c(N)nc1N [amiloride] | inhibited | 
Cn1c(=O)c2[nH]cnc2n(C)c1=O [aminophylline] | inhibited | 
CN(C)CCC=C1c2ccccc2CCc2ccccc21 [amitriptyline] | inhibited | 
CN(C)CCn1nnnc1SCC1=C(C(=O)O)N2C(=O)[C@@H](NC(=O)Cc3csc(N)n3)[C@H]2SC1 [cefotiam] | inhibited | 
CO/N=C(\C(=O)N[C@@H]1C(=O)N2C(C(=O)O)=C(COC(N)=O)CS[C@H]12)c1ccco1 [cefuroxime] | inhibited | 
CCN(CC)CCCC(C)Nc1ccnc2cc(Cl)ccc12 (centres unmarked) [chloroquine] | inhibited | 
CN/C(=N/CCSCc1nc[nH]c1C)NC#N [cimetidine] | inhibited | 
O=C(O)[C@H]1/C(=C/CO)O[C@@H]2CC(=O)N21 [clavulanic acid] | inhibited | 
O=P1(N(CCCl)CCCl)NCCCO1 (centres unmarked) [cyclophosphamide] | inhibited | 

Molecule | effect on the activity of DAO in serum ([1]; stated as known) | other results
N/N=c1\[nH][nH]/c(=N\N)c2ccccc12 [dihydralazin] | inhibited | 
CC(CCc1ccc(O)cc1)NCCc1ccc(O)c(O)c1 (centres unmarked) [dobutamine] | inhibited | 
NCCc1c[nH]cn1 [histamine, 2-(4-imidazolyl)-ethylamine] |  | Km [3]: ~2.8 µM; inhibition of human serum DAO ([4]; 100 micromolar histamine in the assay): partly inhibited; inhibition of human DAO activity ([4]; histamine concentration of 500 micromoles (U.S. Pat. No. 8,003,343)): about 60%; apparent half-life in serum [5]: 0.033 to 4 h
NNC(=O)c1ccncc1 [isoniazid] | inhibited | 
Cc1c(N(C)CS(=O)(=O)O)c(=O)n(-c2ccccc2)n1C [metamizole] | inhibited | 
CCN(CC)CCNC(=O)c1cc(Cl)c(N)cc1OC [metoclopramide] | inhibited | 
CN1CC[C@]23c4c5ccc(O)c4O[C@H]2[C@@H](O)C=C[C@H]3[C@H]1C5 [morphine] |  | effect on the activity of DAO in serum [1]: inhibited
CC(=O)O[C@H]1C[C@@H]2CC[C@@H]3[C@H](CC[C@@]4(C)[C@H]3C[C@H]([N+]3(C)CCCCC3)[C@@H]4OC(C)=O)[C@@]2(C)C[C@@H]1[N+]1(C)CCCCC1 [pancuronium] | inhibited | 
N=C(N)c1ccc(OCCCCCOc2ccc(C(=N)N)cc2)cc1 [pentamidin] | inhibited | 
CCOC(=O)C1(c2ccccc2)CCN(C)CC1 [pethidine] |  | effect on the activity of DAO in serum [1]: inhibited
CCCNC(C)C(=O)Nc1ccccc1C (centres unmarked) [prilocaine] | inhibited | 
NCCCCN [putrescine, 1,4-diaminobutane] |  | Km [3]: ~20 µM
C#CCN(C)[C@H](C)Cc1ccccc1 [selegiline] |  | sensitivity of serum MAO (lower affinity enzyme) to inhibitor [6]: sensitive
CCCC(C)C1(CC)C(=O)NC(=S)NC1=O (centres unmarked) [thiopental] |  | effect on the activity of DAO in serum [1]: inhibited
heparin |  | DAO levels in humans [7]: increase sharply; impact on the DAO level or its activity [8]: no impact
